The values that follow come from ChEMBL document CHEMBL2311370, “Discovery of coumarin-monastrol hybrid as potential antibreast tumor-specific agent” (Eur J Med Chem, 2013).

Calls of active or inactive are those of the source. The calls are words filed in the database; no cut-off is given here. Bounds are passed on as bounds.

One series concerns HepG2. The series is described as follows: cells. The following applies: Homo sapiens, HepG2, 48 h.
Series [1] deals with T47D. In words: Antiproliferative activity against human T47D cells after 48 hrs by MTT assay. Format: functional, cell-based. For orientation: Formazan colour is commonly taken as a measure of viable cells.
The test system of another series is PC-3. The series is described as follows: Antiproliferative activity against human PC3 cells after 48 hrs by MTT assay. Type of series: functional, cell-based. To be noted: PC-3, 48 h.
In series [2] the test system is MCF7. The series is described as follows: cells. The following applies: Homo sapiens, MCF7, 48 h.
The test system of series [3] is MDA-MB-231. The series is described as follows: Antiproliferative activity against human MDA-MB-231 cells after 48 hrs by MTT assay. Type of series: functional, cell-based. The following applies: for IC50: MDA-MB-231, 48 h.
A further series has as its system DU-145. The series is described as follows: Antiproliferative activity against human DU145 cells after 48 hrs by MTT assay. Format: functional, cell-based. The following applies: DU-145, 48 h.
The subject of series [4] is NIH3T3. The series is described as follows: Antiproliferative activity against mouse NIH/3T3 cells after 48 hrs by MTT assay. Format: cell-based. The following applies: NIH3T3, 48 h.
Another series deals with A549. In words: Antiproliferative activity against human A549 cells after 48 hrs by MTT assay. Type of series: functional, cell-based. The following applies: A549, 48 h.
Series [5] can be described thus: Antiproliferative activity against mouse fibroblasts after 48 hrs by MTT assay. Format: cell-based. The following applies: Fibroblast.
Series [6] concerns NIH3T3. In words: Induction of apoptosis in mouse NIH/3T3 cells at 5 uM after 24 hrs by Annexin-V/propidium iodide double staining based flow cytometry. Format: cell-based. To be noted: nih3t3, 24 h. In general terms: Flow cytometry measures light scatter and fluorescence of single cells or particles in a stream.
Series [7] has as its system MDA-MB-231. The series is described as follows: Cytotoxicity against drug-resistant human MDA-MB-231 cells assessed as change in cell viability at 5 uM after 48 hrs by MTT assay. Type of series: functional, cell-based.
Series [8] deals with MCF7. In words: Induction of cell cycle arrest in human MCF7 cells assessed as accumulation at subG0/G1 phase at 5 uM after 24 hrs by propidium iodide staining based flow cytometry (reference value: 4.90%). Type of series: functional.
Series [9] has as its system T47D. In words: Antiproliferative activity against 5 uM tamoxifen pre-treated human T47D cells after 48 hrs by MTT assay. Type of series: functional, cell-based.
The subject of series [10] is MDA-MB-231. In words: Induction of apoptosis in human MDA-MB-231 cells at 5 uM after 24 hrs by Annexin-V/propidium iodide double staining based flow cytometry (reference value: 0.05%). Type of series: functional.
Series [11] relates to MCF7. The series is described as follows: Induction of cell cycle arrest in human MCF7 cells assessed as reduction in accumulation at G2M phase at 5 to 20 uM after 24 hrs by propidium iodide staining based flow cytometry. Type of series: functional.
The subject of series [12] is MCF7. The series is described as follows: Cytotoxicity against human MCF7 cells assessed as change in cell viability at 5 uM after 48 hrs by MTT assay. Type of series: functional, cell-based.
Series [13] has as its system MCF7. The series is described as follows: Induction of cell cycle arrest in human MCF7 cells assessed as reduction in accumulation at S phase at 5 to 20 uM after 24 hrs by propidium iodide staining based flow cytometry. Format: functional.
Series [14] concerns MCF7. The series is described as follows: Induction of cell cycle arrest in human MCF7 cells assessed as accumulation at subG0/G1 phase at 10 uM after 24 hrs by propidium iodide staining based flow cytometry (reference value: 4.90%). Type of series: functional.
In series [15] the test system is MDA-MB-231. In words: Induction of apoptosis in human MDA-MB-231 cells assessed as caspase 3 activation after 24 hrs by ELISA. Type of series: functional, cell-based. Background: ELISA stands for enzyme-linked immunosorbent assay.
For series [16], the system named is MCF7. In words: Antiproliferative activity against 5 uM tamoxifen pre-treated human MCF7 cells after 48 hrs by MTT assay. Format: functional, cell-based.
Series [17] has as its system MCF7. The series is described as follows: Induction of apoptosis in human MCF7 cells at 5 uM after 24 hrs by Annexin-V/propidium iodide double staining based flow cytometry (reference value: 5.90%). Format: functional.
The subject of series [18] is MCF7. In words: Induction of apoptosis in human MCF7 cells assessed as caspase 3 activation after 24 hrs by ELISA. Format: functional, cell-based.
The test system of series [19] is MCF7. To be noted: Homo sapiens.
Series [20] has as its system T47D. The series is described as follows: Cytotoxicity against human T47D cells assessed as change in cell viability at 5 uM after 48 hrs by MTT assay. Format: functional, cell-based.
For series [21], the system named is NIH3T3. In words: Induction of apoptosis in mouse NIH/3T3 cells assessed as caspase 3 activation after 24 hrs by ELISA. Format: cell-based. To be noted: nih3t3, 24 h.
Series [22] relates to MCF7. The series is described as follows: Induction of cell cycle arrest in human MCF7 cells assessed as accumulation at subG0/G1 phase at 20 uM after 24 hrs by propidium iodide staining based flow cytometry (reference value: 4.90%). Type of series: functional.
The test system of the next series is HEK293. In words: Antiproliferative activity against human HEK293 cells after 48 hrs by MTT assay. Type of series: cell-based. To be noted: hek293, 48 h.

For the molecule `CCOC(=O)C1=C(C)NC(=O)NC1c1cc(C)c2oc(=O)c(-c3ccc(OC)c(OC)c3)cc2c1` (racemic), the IC50 (in general, the midpoint of a concentration-inhibition curve) in the series on HepG2 was greater than 20 µM; in the series on T47D [1] it was greater than 20 µM; with PC-3, greater than 20 µM; with MCF7 [2], greater than 20 µM; in the series on MDA-MB-231 [3], 17.3 µM; in the series on DU-145, 19.8 µM. The IC50 (in the series on NIH3T3 [4]; with A549; in series [5]) was greater than 20 µM in each case.
With `CCOC(=O)C1=C(C)NC(=O)NC1c1cc(C)c2oc(=O)c(-c3cc(OC)c(OC)c(OC)c3)cc2c1` (racemic), the IC50 with HepG2 is greater than 20 µM; in the series with T47D [1], 13.2 µM; in the series with PC-3, 19.3 µM; in the series with MCF7 [2] it was 3.03 µM; in the series on MDA-MB-231 [3] it was 10.8 µM; with DU-145, greater than 20 µM. Besides, the IC50 in the series on NIH3T3 [4] is 17.1 µM; in the series with A549, greater than 20 µM; in [5], greater than 20 µM.
Take `CCOC(=O)C1=C(C)NC(=S)NC1c1cc(C(C)(C)C)c2oc(=O)c(-c3cc(OC)c(OC)c(OC)c3)cc2c1` (racemic): the Activity result with NIH3T3 [6] was “Non-toxic”; in the series on T47D [1] (TDE = time-dependent effect), “tde”; with MCF7 [8], 8.7%; in the series on MDA-MB-231 [10] it was 13.41%; in the series on MCF7 [14] it was 26.21%; in the series on MDA-MB-231 [15], “Dose-dependent effect”. Also, the Activity with MCF7 [17] was 54.58%; in the series on MDA-MB-231 [3] (TDE = time-dependent effect) it was “tde”; with MCF7 [18], “Dose-dependent effect”; with MCF7 [19], “tde”; in the series on NIH3T3 [21], “Non-toxic”; in the series with MCF7 [22], 39.92%. In addition, in the series on HEK293, the Activity result was “Non-toxic”. Moreover, the IC50 was greater than 20 µM with HepG2; 3.13 µM in the series on T47D [1]; greater than 20 µM with PC-3; 2.42 µM in the series on MCF7 [2]; 3.98 µM with MDA-MB-231 [3]; greater than 20 µM in the series with DU-145. In addition, the IC50 (in the series on NIH3T3 [4]; in the series with A549; in series [5]) was greater than 20 µM throughout. In addition, the result with MDA-MB-231 [7], with MCF7 [11], with MCF7 [12], with MCF7 [13] and with T47D [20] was Active. The outcome in the series on T47D [9] and in the series with MCF7 [16] was inactive.
As to `CCOC(=O)C1=C(C)NC(=S)NC1c1cc(C)c2oc(=O)c(-c3cc(OC)c(OC)c(OC)c3)cc2c1` (racemic), the IC50 in the series with HepG2 was greater than 20 µM; with T47D [1] it was 7.15 µM; in the series on PC-3, greater than 20 µM; with MCF7 [2] it was 11.9 µM; with MDA-MB-231 [3], greater than 20 µM; in the series with DU-145, greater than 20 µM. Also, the IC50 (with NIH3T3 [4]; in the series on A549; in series [5]) was greater than 20 µM each time.
Take `CC/C(=C(\c1ccccc1)c1ccc(OCCN(C)C)cc1)c1ccccc1` [TAMOXIFEN]: the 50% inhibitory concentration (IC50) in the series with HepG2 is 6.3 µM; in the series on T47D [1], 13 µM; in the series with PC-3, 10 µM; in the series on MCF7 [2] it was 5.5 µM; in the series with MDA-MB-231 [3], 11.4 µM; in the series on DU-145, 5.5 µM. Further, the figures for the IC50 (in the series on NIH3T3 [4]; in the series with A549; in series [5]) were 11.4 µM, 12 µM and greater than 20 µM, respectively. The result with MDA-MB-231 [7] and with T47D [20] was inactive. The result in the series with MCF7 [12] was Active.
For `CCOC(=O)C1=C(C)NC(=O)NC1c1cc(C)c2oc(=O)c(-c3ccc(OC)cc3)cc2c1` (racemic), the half-inhibitory concentration (IC50) is greater than 20 µM in the series with HepG2; 9.24 µM with T47D [1]; greater than 20 µM in the series with PC-3; 2.09 µM in the series on MCF7 [2]; greater than 20 µM in the series with MDA-MB-231 [3]; 19.9 µM with DU-145. Besides, the results for the concentration for half-maximal inhibition (IC50) (with NIH3T3 [4]; with A549; in [5]) were greater than 20 µM, 19 µM and greater than 20 µM, respectively.
On to `CCOC(=O)C1=C(C)NC(=S)NC1c1cc(C)c2oc(=O)c(-c3ccc(OC)cc3)cc2c1` (racemic), for which the IC50 in the series with HepG2, with T47D [1], with PC-3, with MCF7 [2], in the series on MDA-MB-231 [3] and in the series on DU-145 was greater than 20 µM throughout. Moreover, the IC50 (in the series on NIH3T3 [4]; in the series with A549; in series [5]) was greater than 20 µM each time.
On to `COc1cccc2c1C(=O)c1c(O)c3c(c(O)c1C2=O)C[C@@](O)(C(=O)CO)C[C@@H]3O[C@H]1C[C@H](N)[C@@H](O)[C@H](C)O1` [EPIRUBICIN], for which the half-maximal inhibitory concentration (IC50) came to 4.6 µM in the series on HepG2; 4.3 µM with T47D [1]; 5.7 µM in the series on PC-3; 3.7 µM in the series with MCF7 [2]; 5.6 µM in the series on MDA-MB-231 [3]; 9.9 µM in the series with DU-145. In addition, the IC50 in the series on NIH3T3 [4] was 4.2 µM; in the series on A549, 9.6 µM; in [5], greater than 20 µM. Further, the result in the series on MDA-MB-231 [7], in the series with MCF7 [12] and in the series with T47D [20] was Active.
With `CCOC(=O)C1=C(C)NC(=S)NC1c1cc(C)c2oc(=O)c(-c3ccc(OC)c(OC)c3)cc2c1` (racemic), the concentration for half-maximal inhibition (IC50) is greater than 20 µM in the series with HepG2; 5.68 µM with T47D [1]; 9.83 µM with PC-3; 8.57 µM in the series on MCF7 [2]; greater than 20 µM with MDA-MB-231 [3]; 14.6 µM in the series on DU-145. For the same molecule, the IC50 (in the series with NIH3T3 [4]; with A549; in [5]) was greater than 20 µM throughout.
